This note sets out measurements from publication PMC5390467, “Novel lead structures with both Plasmodium falciparum gametocytocidal and asexual blood stage activity identified from high throughput compound screening” (Malaria Journal, 2017).

The subject of one test is HepG2 cells. Briefly: HepG2 cytotoxicity assay (AlamarBlue). Type of test: cell-based, human. Particulars: HepG2 cells, 72 h, AlamarBlue, up to 46 µM; for cytotoxicity at 46 µM: Homo sapiens, read-out: HepG2, IC50 (dash = less than 25% cytotoxicity). As to the method: (§1) Asexual parasites of P. falciparum strain NF54 were cultured as described previously. Briefly, parasites were maintained in RPMI 1640 medium containing 10% positive human serum + erythrocytes (5% haematocrit), 2.5% sodium bicarbonate and 11 µg/mL gentamicin at 37 °C with 5% CO2, 5% O2 and 90% N2. Gametocyte cultures were set up at 0.1% parasitaemia and on days 9–10 treated with 50 mM N-acetylglucosamine (NAG) to block further asexual growth. Stage III–V gametocytes were isolated by Percoll density gradient centrifugation on day 12 and returned to culture for 24 h before being used in the assay. At the time of the assay over 73% of the gametocytes were stage IV or V (Additional file 1). HepG2 cells (ATCC, cat. no. 77400) were cultured in 175-cm^2 tissue culture flasks with 30 ml growth medium at 37 °C in a 5% CO2 and 5% O2 humidified atmosphere. Growth medium was made with Dulbecco’s Modified Eagle Medium with 10% fetal bovine serum (FBS). Growth medium was replaced every other day and cells were passaged at 75% confluence.
Drug activity on HepG2 was tested using an AlamarBlue assay as previously described. Briefly, 5 μL/well of HepG2 cells were dispensed with a seeding density of 1000 cells/well using the Multidrop Combi. 23 nL compound was transferred using the NX-TR Pintool. After 72 h incubation under the standard culture condition, 5 μL/well of 2X AlamarBlue dye was added to the cells, the plates were incubated for 2 h at 37 °C with 5% CO2 and then were read in a fluorescence detection mode (Ex = 525 nm, Em = 598 nm) on a ViewLux plate reader.

A further test deals with 468 human kinases. Put plainly: human kinase profiling (Kinome scan, DiscoverX), whole panel. The class given is binding.
Test [1] concerns P. falciparum NF54 gametocytes. Briefly: gametocyte viability assay (AlamarBlue). Particulars: for IC50: P. falciparum NF54 stage III-V gametocytes, 72 h, AlamarBlue, mean ± SD, n = 3; for Asexual/Gametocyte: ratio of asexual IC50 to gametocyte IC50. The class given is cell-based, Plasmodium falciparum. Here is the method: as §1
Compounds from the Sytravon library (a retired Pharma screening collection that contains a diversity of novel small molecules, with an emphasis on medicinal chemistry-tractable scaffolds) were obtained as powder samples and dissolved in DMSO as […] stock solutions. Compound screening experiments were performed as previously described. In the primary screen, two concentrations for each compound were tested. No technical and biological replicates were involved. In the follow-up confirmation studies, three biological replicates were tested for each compound in both parasite assays. The positive control was 46 µM of Torin 2 and negative control was DMSO. Briefly, 2.5 μL/well incomplete medium was dispensed into each well of 1536-well plates using the Multidrop Combi followed by 23 nL compound transferring using the NX-TR Pintool (WAKO Scientific Solutions, San Diego, CA). Then, 2.5 μL/well of gametocytes was dispensed with a seeding density of 20,000 cells/well using the Multidrop Combi. The assay plates were incubated for 72 h at 37 °C with 5% CO2. After addition of 5 μL/well of 2X AlamarBlue dye (Life Technologies, cat. no. DAL1100), the plates were incubated for 24 h at 37 °C with 5% CO2 and then were read in a fluorescence detection mode (Ex = 525 nm, Em = 598 nm) on a ViewLux plate reader (PerkinElmer).

In test [2] the test system is P. falciparum NF54 asexual parasites. Put plainly: asexual parasite growth inhibition assay (SYBR Green). The class given is cell-based, Plasmodium falciparum. Particulars: 72 h, mean ± SD, n = 3. Here is the method: as §1
Drug activity on asexual stage parasites was tested using a SYBR Green assay as described previously. Briefly, 2.5 μL/well complete culture medium was dispensed into each well of 1536-well plates using the Multidrop Combi followed by 23 nL compound transferring using the NX-TR Pintool. Parasites were diluted to 0.5% parasitaemia in complete culture medium with 2% haematocrit and drugs diluted in DMSO (≤0.5%). The pre-diluted parasites were dispensed into a 1536-well plate (2.5 μL/well). After 72 h incubation under the standard culture conditions, 5 μL/well of lysis buffer containing SYBR Green I was added to the parasite culture and incubated for 30 min at room temperature. The fluorescence of each well was measured in a fluorescence detection mode (Ex = 490 nm, Em = 520 nm) using a ViewLux plate reader (PerkinElmer).

SMILES strings stand for the structures.

Turning to `CCOCc1cc(CN2CCN(c3ccccc3OC)CC2)c(O)c2ncccc12` [NCGC00114940], in the test on HepG2 cells, the cytotoxicity at 46 µM is less than 25%. The “number of human kinases interacting (Interactions Mapped, 468 Assays Tested)” value with 468 human kinases (10 μM) was 0. Also, in the test with 468 human kinases (10 µM, 468 assays), the “S-Score(35)” value was determined as 0. Moreover, in the test on 468 human kinases (10 µM, 468 human kinases), the “binding to human kinases, in words” value is “did not affect the activity of any”. In addition, the IC50 turned out to be 620 ± 40 nM in test [1] (Plasmodium falciparum) and 1160 ± 570 nM in test [2] (Plasmodium falciparum). Also, the Asexual/Gametocyte in test [1] is 1.87.

As to `Cc1cc(Nc2ccc(Cl)cc2C)nc(-n2nc(C)cc2C)n1` [NCGC00134136], the “HepG2, IC50 (dash = less than 25% cytotoxicity)” value in the test on HepG2 cells is on record as “– (Indicates compounds with less than 25% cytotoxicity at up to 46 µM)”. Moreover, the figures for the IC50 in test [1] and in test [2] were 2570 ± 480 nM and 4120 ± 100 nM, respectively. In addition, in test [1], the Asexual/Gametocyte stood at 1.60.

With `Cc1ccc(Nc2cc(C)nc(-n3nc(C)cc3C)n2)cc1` [NCGC00134154], the cytotoxicity at 46 µM in the test on HepG2 cells is less than 25%. Also, the IC50 in test [1] (Plasmodium falciparum) was 1190 ± 340 nM; in test [2] (Plasmodium falciparum), 2830 ± 310 nM. Also, in test [1], the Asexual/Gametocyte amounted to 2.38.

On to `Cc1cc(Nc2cc(F)ccc2C)nc(-n2nc(C)cc2C)n1` [NCGC00134156], for which the “HepG2, IC50 (dash = less than 25% cytotoxicity)” value in the test on HepG2 cells is listed as “– (Indicates compounds with less than 25% cytotoxicity at up to 46 µM)”. In test [1], the IC50 is 2100 ± 730 nM and the Asexual/Gametocyte worked out at 1.68. In test [2], this molecule displayed a half-inhibitory concentration (IC50) of 3530 ± 270 nM.

For `Cc1cc(Nc2ccc(F)cc2F)nc(-n2nc(C)cc2C)n1` [NCGC00134158], the “HepG2, IC50 (dash = less than 25% cytotoxicity)” value in the test with HepG2 cells is on record as “– (Indicates compounds with less than 25% cytotoxicity at up to 46 µM)”. Also, in test [1], the IC50 stood at 2080 ± 180 nM and the Asexual/Gametocyte came to 2.26. The same molecule returned an IC50 in test [2] of 4700 ± 520 nM.

Turning to `COc1ccccc1Cn1c(CNS(=O)(=O)c2cccc([N+](=O)[O-])c2)nc2cccnc21` [NCGC00134795], in the test with HepG2 cells, the “HepG2, IC50 (dash = less than 25% cytotoxicity)” value was “– (Indicates compounds with less than 25% cytotoxicity at up to 46 µM)”. In addition, the IC50 in test [1] worked out at 4250 ± 640 nM; in test [2], 960 ± 300 nM. The Asexual/Gametocyte in test [1] was determined as 0.23.

Turning to `COc1ccc(NC(=O)c2ccc3c(c2)N(Cc2cccc(Cl)c2)C(=O)c2ccccc2[S+]3[O-])cc1Cl` (centres unmarked) [NCGC00140326], the “HepG2, IC50 (dash = less than 25% cytotoxicity)” value in the test with HepG2 cells is “– (Indicates compounds with less than 25% cytotoxicity at up to 46 µM)”. For the same molecule, in test [1], the IC50 is roughly 60000 nM and the Asexual/Gametocyte is 0.23. Further, in test [2], the IC50 is 13800 ± 820 nM.

In the case of `Cc1ccc(C)c(Oc2c(C(F)(F)F)oc3c(CN4CCN(C)CC4)c(O)ccc3c2=O)c1` [NCGC00141020], the “HepG2, IC50 (dash = less than 25% cytotoxicity)” value with HepG2 cells is “– (Indicates compounds with less than 25% cytotoxicity at up to 46 µM)”. In addition, in test [1], the midpoint of inhibition, the IC50, lay at 4860 ± 30 nM and the Asexual/Gametocyte is given as 0.22. The molecule further yielded an IC50 in test [2] of 1070 ± 370 nM.
